Laboratory results: patent US20240254138A1, “TRICYCLIC PYRIMIDINES AS CYCLIN-DEPENDENT KINASE 7 (CDK7) INHIBITORS” (JANSSEN PHARMACEUTICA NV, priority 2021, published 2024)
Like-named read-outs stand apart in the source and are kept apart here.

Experiments:
[1] = test system: RNA Polymerase II Serine 5 phosphorylation in A549 cells overexpressing CDK7-mutant (C312S); test: Imaging-based cellular RNA PolII Ser5 phosphorylation assay in A549 cells overexpressing CDK7-mutant (C312S); format: cell-based, human; settings: RNA PolII Ser5 phosphorylation, averaged over all measurements; for IC50: Homo sapiens, A549, A549 cells overexpressing CDK7-mutant (C312S), read-out: CDK7_A549 mutant hCDK7(pIC50) (converted); for CDK7_A549 mutant hCDK7(pIC50): A549 cells overexpressing CDK7-mutant (C312S)
In short: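 Readout was automated imaging of anti-phospho-Ser5 Rpb1 CTD immunofluorescence, with IC50 fitted to % control versus concentration. Cells were A549 stably overexpressing non-covalently targetable CDK7 C312S alongside wild-type, exposed to compound 3 h at 37 °C. DMSO and 10 μM reference compound served as controls.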

[2] = test system: RNA Polymerase II Serine 5 phosphorylation (Rpb1 CTD, downstream substrate of CDK7) in A549 cells; test: Imaging-based cellular RNA PolII Ser5 phosphorylation assay in A549 cells; format: cell-based, human; settings: wild-type CDK7, RNA PolII Ser5 phosphorylation, averaged over all measurements; for IC50: Homo sapiens, A549, A549 cells, read-out: CDK7_A549 Wild-type CDK7 (pIC50) (converted); for CDK7_A549 Wild-type CDK7 (pIC50): A549 cells
In short: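 IC50 derived by fitting % control (DMSO high, 10 μM reference low) against concentration, with Hill slope. Readout: high-content imaging of phospho-Ser5 Rpb1 CTD antibody staining in fixed, permeabilized A549 cells exposed to compound 3 h after 20 h culture in 1% FBS DMEM.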

[3] = biological target: CDK7/cyclinH/MAT1 trimeric complex (Homo sapiens, UniProt P50613); test: In vitro CDK7 assay, potency of irreversible covalent inhibitors (kinact/KI), coupled PK/LDH ADP readout at 340 nm; settings: for Ki: CDK7 (20 nM enz.) (KI, μM); for Ki / CDK7 (20 nM enz.) (kinact, s^−1) / CDK7 (20 nM enz.) (kinact/KI, M^−1*s^−1) / CDK7 (20 nM enz.) (kobs/[I], M^−1*s^−1): 20 nM enzyme; for kinact: read-out: CDK7 (20 nM enz.) (kinact, s^−1), 20 nM enzyme
[4] = read-out: CDK7 (20 nM enz.) (kinact/KI, M^−1*s^−1), 20 nM enzyme
[5] = read-out: CDK7 (20 nM enz.) (kobs/[I], M^−1*s^−1), 20 nM enzyme

Sequence of CDK7/cyclinH/MAT1 trimeric complex (P50613 whole entry): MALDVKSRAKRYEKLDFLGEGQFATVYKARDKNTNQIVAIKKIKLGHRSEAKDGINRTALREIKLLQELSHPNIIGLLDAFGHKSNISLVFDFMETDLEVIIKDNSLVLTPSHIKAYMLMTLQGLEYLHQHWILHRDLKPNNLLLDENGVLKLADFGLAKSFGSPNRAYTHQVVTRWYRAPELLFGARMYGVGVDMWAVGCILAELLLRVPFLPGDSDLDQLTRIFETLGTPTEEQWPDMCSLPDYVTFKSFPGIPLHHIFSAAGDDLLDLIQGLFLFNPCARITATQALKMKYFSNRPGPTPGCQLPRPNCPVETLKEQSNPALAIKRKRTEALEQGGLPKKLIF
Sequence of CDK7/cyclinH/MAT1 trimeric complex (P51946 whole entry partner): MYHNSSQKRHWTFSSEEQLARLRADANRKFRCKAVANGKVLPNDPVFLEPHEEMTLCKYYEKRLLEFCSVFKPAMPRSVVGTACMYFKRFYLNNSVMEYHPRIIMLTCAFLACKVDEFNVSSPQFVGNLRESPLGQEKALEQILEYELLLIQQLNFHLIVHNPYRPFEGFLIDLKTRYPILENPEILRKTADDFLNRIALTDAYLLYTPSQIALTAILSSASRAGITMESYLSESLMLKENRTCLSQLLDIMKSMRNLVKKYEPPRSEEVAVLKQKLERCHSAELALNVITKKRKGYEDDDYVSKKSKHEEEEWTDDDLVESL
Sequence of CDK7/cyclinH/MAT1 trimeric complex (P51948 whole entry partner): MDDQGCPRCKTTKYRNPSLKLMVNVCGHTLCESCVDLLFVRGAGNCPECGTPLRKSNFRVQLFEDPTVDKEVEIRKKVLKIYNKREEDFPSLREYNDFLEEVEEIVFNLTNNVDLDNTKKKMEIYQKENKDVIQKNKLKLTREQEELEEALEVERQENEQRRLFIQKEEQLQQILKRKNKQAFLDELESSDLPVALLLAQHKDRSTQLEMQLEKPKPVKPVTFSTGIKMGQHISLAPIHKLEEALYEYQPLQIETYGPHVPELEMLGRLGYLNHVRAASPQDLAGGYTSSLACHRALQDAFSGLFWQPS

Row | SMILES | IC50 [1] | IC50 [2] | Ki [3] | kinact [3] | kinact/KI [3, 4] | CDK7_A549 mutant hCDK7(pIC50) [1] | CDK7_A549 Wild-type CDK7 (pIC50) [2] | CDK7 (20 nM enz.) (kinact, s^−1) [3] | CDK7 (20 nM enz.) (kinact/KI, M^−1*s^−1) [3] | CDK7 (20 nM enz.) (kobs/[I], M^−1*s^−1) [3] | kinact/KI [3, 5]
1 | C=CC(=O)N1CCC(N2CC(c3cc4c(c(C)n3)OCc3c(N5CCOCC5)ccnc3N4)C2)CC1 [Compound 303] | 6170 nM | 91.2 nM | 0.0492 µM | 2.35e-05 s⁻¹ | 477 M⁻¹ s⁻¹ |  |  |  |  |  | 
2 | CC#CC(=O)N1CCC(N2CC(c3cc4c(c(C)n3)OCc3c(N5CCOCC5)ccnc3N4)C2)CC1 [Compound 313] | 5370 nM | 77.6 nM | 0.0471 µM | 2.02e-05 s⁻¹ | 427 M⁻¹ s⁻¹ |  |  |  |  |  | 
3 | C=CC(=O)N1CC(N2CCC(c3cc4c(c(C)n3)OCc3c(-c5cnn(C)c5)ccnc3N4)CC2)C1 [Compound 314] |  |  | 0.0655 µM |  |  | <5 | 7.14 | 3.945e-05 s⁻¹ | 602.565 M⁻¹ s⁻¹ |  | 
4 | C=CC(=O)N1CC(N2CC(c3cc4c(c(C(F)(F)F)n3)OCc3c(N5CCOCC5)ccnc3N4)C2)C1 [Compound 315] |  |  |  |  |  | 5.3 | 7.25 |  |  | 894.649 M⁻¹ s⁻¹ | 
5 | C=CC(=O)N1CCC(N2CC(c3cc4c(c(C)n3)OCc3c(-c5cnn(C)c5)ccnc3N4)C2)CC1 [Compound 316] |  |  | 0.0898 µM |  |  | 5.32 | 6.97 | 2.255e-05 s⁻¹ | 251.248 M⁻¹ s⁻¹ |  | 
6 | C=CC(=O)N1CC(N2CC(c3cc4c(c(C5CC5)n3)OCc3c(N5CCOCC5)ccnc3N4)C2)C1 [Compound 317] | > 10000 nM | 60.3 nM |  |  |  |  |  |  |  |  | 1060 M⁻¹ s⁻¹
7 | CC#CC(=O)N1CC(N2CC(c3cc4c(c(C5CC5)n3)OCc3c(N5CCOCC5)ccnc3N4)C2)C1 [Compound 318] | > 10000 nM | 324 nM | 0.0441 µM | 6.19e-05 s⁻¹ | 1400 M⁻¹ s⁻¹ |  |  |  |  |  | 
8 | C=CC(=O)N1CC(N2CCC(c3cc4c(c(C#N)n3)OCc3c(C5CCOCC5)ccnc3N4)CC2)C1 [Compound 322] | 9550 nM | 79.4 nM |  |  |  |  |  |  |  |  | 740 M⁻¹ s⁻¹
9 | CC#CC(=O)N1CCC(N2CCC(c3cc4c(c(C)n3)OCc3c(N5CCOCC5)ccnc3N4)CC2)CC1 [Compound 325] | 4170 nM | < 9.77 nM |  |  |  |  |  |  |  |  | 1280 M⁻¹ s⁻¹
10 | CC#CC(=O)N1CC(n2cc(-c3cc(C)c4c(c3)Nc3nccc(N5CCOCC5)c3CO4)cn2)C1 [Compound 333] | 6760 nM | 178 nM | 0.11 µM | 2.12e-05 s⁻¹ | 193 M⁻¹ s⁻¹ |  |  |  |  |  | 
11 | CC#CC(=O)N1CCC(N2CC(c3cc4c(c(C5CC5)n3)OCc3c(N5CCOCC5)ccnc3N4)C2)CC1 [Compound 335] | 3630 nM | 55 nM | 0.0383 µM | 1.86e-05 s⁻¹ | 486 M⁻¹ s⁻¹ |  |  |  |  |  | 
12 | C=CC(=O)N1CCC(N2CC(c3cc4c(c(C5CC5)n3)OCc3c(N5CCOCC5)ccnc3N4)C2)CC1 [Compound 336] | 1320 nM | 49 nM | 0.0564 µM |  |  |  |  | 1.295e-05 s⁻¹ | 229.663 M⁻¹ s⁻¹ |  | 
13 | C=CC(=O)N1CCC(N2CC(c3cc(C)c4c(c3)Nc3nccc(-c5cnn(C)c5)c3CO4)C2)CC1 [Compound 338] |  |  |  | 4.86e-05 s⁻¹ |  | 5.52 | 7.25 |  | 299.026 M⁻¹ s⁻¹ |  | 
14 | C=CC(=O)N1CC(N2CC(c3cc4c(c(C#N)n3)OCc3c(C5CCOCC5)ccnc3N4)C2)C1 [Compound 339] | > 10000 nM | 145 nM | 0.0746 µM | 7.81e-05 s⁻¹ | 1050 M⁻¹ s⁻¹ |  |  |  |  |  | 
15 | CC#CC(=O)N1CCC(N2CC(c3cc4c(c(C5CC5)n3)OCc3c(N5CCOCC5)ccnc3N4)C2)CC1 [Compound 340] |  |  | 0.0486 µM |  |  | 5.43 | 7.37 | 2.465e-05 s⁻¹ | 507.473 M⁻¹ s⁻¹ |  | 
16 | C=CC(=O)N1CCC(N2CC(c3cc4c(c(C5CC5)n3)OCc3c(N5CCOCC5)ccnc3N4)C2)CC1 [Compound 341] |  |  | 0.0443 µM |  |  | 5.64 | 7.35 | 2.9e-05 s⁻¹ | 655.075 M⁻¹ s⁻¹ |  | 
17 | C=CC(=O)N1CC(N2CCC(c3cc(C#N)c4c(c3)Nc3nccc(N5CCOCC5)c3C(C)O4)CC2)C1 (stereo not drawn) [Compound 342] |  |  |  |  |  | 5.18 | 7.85 |  |  |  | 633 M⁻¹ s⁻¹
18 | CC#CC(=O)N1CCC(N2CC(c3cc4c(c(CCC)n3)OCc3c(N5CCOCC5)ccnc3N4)C2)CC1 [Compound 347] | 5130 nM | 47.9 nM | 0.036 µM | 2.84e-05 s⁻¹ | 791 M⁻¹ s⁻¹ |  |  |  |  |  | 
19 | C=CC(=O)N1CCC(N2CC(c3cc4c(c(CCC)n3)OCc3c(N5CCOCC5)ccnc3N4)C2)CC1 [Compound 348] | 3090 nM | 47.9 nM | 0.0543 µM | 5.99e-05 s⁻¹ | 1100 M⁻¹ s⁻¹ |  |  |  |  |  | 
20 | C=C(C(=O)N1CCC(N2CC(c3cc4c(c(C)n3)OCc3c(-c5cnn(C)c5)ccnc3N4)C2)CC1)n1cccn1 [Compound 349] | 8320 nM | 97.7 nM | 0.0563 µM | 3.25e-05 s⁻¹ | 578 M⁻¹ s⁻¹ |  |  |  |  |  | 
21 | C=CC(=O)N1CC(N2CC(c3cc4c(c(CCC)n3)OCc3c(N5CCOCC5)ccnc3N4)C2)C1 [Compound 350] | 10000 nM | 81.3 nM | 0.025 µM | 4.4e-05 s⁻¹ | 1760 M⁻¹ s⁻¹ |  |  |  |  |  | 
22 | C=CC(=O)N1CC(N2CCC(c3cc(C#N)c4c(c3)Nc3nccc(N5CCOCC5)c3C(C)O4)CC2)C1 (stereo not drawn) [Compound 352] |  |  | 0.055 µM | 5.53e-05 s⁻¹ | 1010 M⁻¹ s⁻¹ | 5.51 | 7.52 |  |  |  | 
23 | C=CC(=O)N1CC(N2CC(c3cc4c(c(C(F)(F)F)n3)OCc3c(N5CCOCC5)ccnc3N4)C2)C1 [Compound 357] |  |  |  |  |  | 5.11 | 7.24 |  |  | 2368.08 M⁻¹ s⁻¹ | 
24 | C=CC(=O)N1CCC(N2CC(c3cc4c(c(C(F)(F)F)n3)OCc3c(N5CCOCC5)ccnc3N4)C2)CC1 [Compound 359] | 2820 nM | 102 nM | 0.028 µM | 2.79e-05 s⁻¹ |  |  |  |  | 994.882 M⁻¹ s⁻¹ |  | 
25 | CC#CC(=O)N1CCC(N2CC(c3cc4c(c(-c5ncc[nH]5)n3)OCc3c(N5CCOCC5)ccnc3N4)C2)CC1 [Compound 364] | > 10000 nM | 162 nM |  |  |  |  |  |  |  |  | 464 M⁻¹ s⁻¹
26 | C=CC(=O)N1CCC(N2CC(c3cc4c(c(-c5ncc[nH]5)n3)OCc3c(N5CCOCC5)ccnc3N4)C2)CC1 [Compound 366] | 10700 nM | 209 nM |  |  |  |  |  |  |  |  | 339 M⁻¹ s⁻¹
27 | C=CC(=O)N1CC(N2CCC(c3cc4c(c(C)n3)OCc3c(N5CCOCC5)ccnc3N4)N(C)CC2)C1 (stereo not drawn) [Compound 367] | 10500 nM | 75.9 nM | 0.0482 µM | 3.37e-05 s⁻¹ | 698 M⁻¹ s⁻¹ |  |  |  |  |  | 
28 | CC#CC(=O)N1CC(N2CC(c3cc4c(c(CCC)n3)OCc3c(N5CCOCC5)ccnc3N4)C2)C1 [Compound 368] | > 10000 nM | 191 nM | 0.103 µM | 4.43e-05 s⁻¹ | 429 M⁻¹ s⁻¹ |  |  |  |  |  | 
